{"source": "patent US9737517B2", "about": "“Pharmaceutical use of hexahydro-dibenzo[a,g]quinolizine compounds” (SHANGHAI INSTITUTE OF MATERIA MEDICA, CHINESE ACADEMY OF …, priority 2013, dated 2017)", "key": {"α1A-AR": {"target": "T1, α1A-AR (Homo sapiens, UniProt P35348)", "T1 construct": "expressed in transfected cells; host or cells: HEK293", "T1 sequence (P35348 1-466)": "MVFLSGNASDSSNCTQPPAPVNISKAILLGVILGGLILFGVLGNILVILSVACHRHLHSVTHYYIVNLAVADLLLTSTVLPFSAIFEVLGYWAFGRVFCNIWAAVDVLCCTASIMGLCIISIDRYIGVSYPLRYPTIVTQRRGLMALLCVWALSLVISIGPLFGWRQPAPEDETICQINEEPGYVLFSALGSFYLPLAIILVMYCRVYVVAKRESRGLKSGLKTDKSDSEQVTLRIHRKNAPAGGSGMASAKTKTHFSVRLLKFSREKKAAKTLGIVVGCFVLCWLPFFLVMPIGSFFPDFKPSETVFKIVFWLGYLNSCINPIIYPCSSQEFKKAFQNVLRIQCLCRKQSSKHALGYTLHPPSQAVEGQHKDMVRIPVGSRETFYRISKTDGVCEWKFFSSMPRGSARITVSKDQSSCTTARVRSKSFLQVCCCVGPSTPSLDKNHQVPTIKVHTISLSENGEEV", "experiment": "Calcium mobilization (Fluo-4) antagonism of phenylephrine in HEK293 cells expressing α1A-AR/Gα16", "format": "cell-based", "settings": "for IC50: HEK293 α1A-AR/Gα16, calcium mobilization, phenylephrine 30 nM; for α1B/α1A: ratio of cell IC50 values, calcium mobilization", "protocol": "(§1) HEK293 cells stably expressing α1A-AR/Gα16, α1B-AR/Gα16, α1D-AR/Gα16 were seeded in a 96-well plate, and cultured for 24 hours. Then the medium was removed and 40 μL Hank's balanced salt solution (HBSS: containing 5.4 mM KCl, 0.3 mM Na2HPO4, 0.4 mM KH2PO4, 4.2 mM NaHCO3, 1.3 mM CaCl2, 0.5 mM MgCl2, 0.6 mM MgSO4, 137 mM NaCl, 5.6 mM D-glucose, and 250 μM sulfinpyrazone, pH 7.4) containing 2 μM Fluo-4 AM was added into each well, and incubated at 37° C. for 45 min. Dye was removed and 50 μL of HBSS containing either test compound or 1% DMSO (negative control) was added. After incubation at room temperature for 10 min, Flex Station 3 microplate reader was used to read the value. At specified time points, 25 μL of agonist (phenylephrine, final concentration 30 nM) was dispensed into the well automatically using the reader and fluorescence intensity change of dye caused by intracellular calcium concentration change was detected at an excitation wavelength of 485 nm and an emission wavelength of 525 nm.\n(§2) After incubation with different drugs, the reaction rate of cells to 1-AR agonist phenylephrine was calculated as follows: Reaction rate %=(D−B)/(S−B)*100%;\n(§3) The reaction rate of the same drug at different doses was tested using GraphPad Prism software by non-linear regression analysis, and the dose-response curve was obtained and IC50 values was measured. Data were obtained from three separate experiments, and each experiment included three duplicate wells."}, "α1B-AR": {"target": "T2, α1B-AR (Homo sapiens, UniProt P35368)", "T2 construct": "expressed in transfected cells; host or cells: HEK293", "T2 sequence (P35368 1-520)": "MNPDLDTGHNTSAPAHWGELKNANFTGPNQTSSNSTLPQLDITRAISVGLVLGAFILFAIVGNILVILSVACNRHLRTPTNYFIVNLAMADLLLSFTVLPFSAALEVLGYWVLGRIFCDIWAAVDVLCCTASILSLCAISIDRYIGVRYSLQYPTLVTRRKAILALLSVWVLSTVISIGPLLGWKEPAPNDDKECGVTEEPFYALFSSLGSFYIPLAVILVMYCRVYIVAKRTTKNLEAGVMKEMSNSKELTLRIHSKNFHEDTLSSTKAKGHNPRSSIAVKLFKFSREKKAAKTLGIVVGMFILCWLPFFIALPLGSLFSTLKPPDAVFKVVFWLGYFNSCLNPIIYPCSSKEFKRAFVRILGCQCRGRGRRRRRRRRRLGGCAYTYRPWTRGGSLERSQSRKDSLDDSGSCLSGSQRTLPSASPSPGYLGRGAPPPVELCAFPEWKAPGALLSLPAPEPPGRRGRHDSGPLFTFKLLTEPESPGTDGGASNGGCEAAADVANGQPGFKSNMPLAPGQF", "experiment": "Calcium mobilization (Fluo-4) antagonism of phenylephrine in HEK293 cells expressing α1B-AR/Gα16", "format": "cell-based", "settings": "phenylephrine 30 nM", "protocol": "as §1, §2, §3"}, "SD rats": {"test_system": "SD rats", "experiment": "Phenylephrine-induced intraurethral pressure (IUP) and arterial blood pressure (MBP) elevation in anesthetized rats", "format": "in vivo", "settings": "anesthetized male SD rats; for inhibition of phenylephrine-induced intraurethral pressure (IUP) elevation / inhibition of phenylephrine-induced peripheral arterial blood pressure (MBP) elevation: intraduodenal administration", "description": "Male SD rats (200-450 g) were anesthetized with an i.p. administration of urethane (1.25 g/kg). The urinary bladder, prostate, and urethra were exposed through an abdominal midline and symphysis pubica incision. A catheter was placed into the prostatic urethra through the bladder dome and secured at bladder neck (vesico-urethral junction) with a silk suture. The distal urethra under pubica was closed. The other side of the catheter was connected to a pressure transducer to measure the intraurethral pressure (IUP). After separating the duodenum and cutting open at about 2 cm from the stomach pylorus, intubating and performing purse-string suture, the test sample was supplied. Then, the median carotid incision was performed, carotid artery was separated, and the arterial blood pressure was measured by pressure transducer connected to artery cannula. Be careful not to hurt the nerves and blood vessels throughout the procedure. After surgery, a small amount (0.1˜0.2 mL) of saline was injected to balance the intraurethral pressure at around 10 cm of water. Then an intravenous injection at a concentration of 30 μg/mL of […] 1 mL/kg was performed before administration and 5 min, 30 min, 1 h, 1.5 h, 2 h, 3 h after administration to induce intraurethral pressure elevation. (If the effect was stable or weakened, then the experiment was ended.) The changes of intraurethral pressure and blood pressure induced by phenylephrine in rats were observed and recorded at different time points before and after administration."}, "BPH Rat model": {"test_system": "BPH Rat model", "experiment": "Pharmacodynamic experiment in BPH rat model (testosterone propionate), urination after water load", "format": "in vivo, SD rats", "settings": "BPH model rats; for frequency of urination, single urine output: relation to dose: 3 doses, water load 30 mL/kg", "protocol": "Establishing of BPH Rat model: 6-week-old male SD rats (n=49) (body weight about 200 g), in which 37 rats were BPH model group and daily injected testosterone propionate subcutaneously, and the other 12 rats were Sham group and injected olive oil, for 4 weeks. After 4 weeks, 49 rats received gavage in a dosage of 30 mL/kg of water, and urination for each rat was observed and recorded (recording each urine output and frequency of urination within two hours).\nAccording to the above verification results, rats having abnormal urination were firstly excluded. Then, the normal BPH model rats were divided into 2 groups, 12 rats every group, and 12 rats of Sham group were singled out as control group. Grouping principles were as follows: there were significant differences of body weight, frequency of urination within two hours, single urine output and the total amount of urination between the two groups of BPH model and Sham group, and there were no significant differences between the two groups of BPH model.\nEfficacy verification experiment. The experiment had seven groups: Sham group, silodosin group (BPH-1,3-group dose) and DC037009 group (BPH-2,3-group dose). Rats received gavage in a dosage of 5 mL/kg and each dose of the compound dissolved with CMCNa. After 20 min, the rats received gavage in a dosage of 30 mL/kg water. The study time interval of different doses of the same compound was over 24 hours."}, "[1]": {"settings": "under certain total urine output"}}}
{"smiles": "COc1cc2c(cc1OC)CN1CCc3cc4c(cc3[C@@H]1C2)OCO4", "note": "[DC037009, S-(−)-2,3-methylenedioxy-10,11-dimethoxy-5,8,13,13a-tetrahydro-6H-dibenzo[a,g]quinolizine]", "values": [{"measurement": "IC50", "setting": "α1A-AR", "value": 29.8, "unit": "nM"}, {"measurement": "α1B/α1A", "setting": "α1A-AR", "value": 175}, {"measurement": "IC50", "setting": "α1B-AR", "value": 5210, "unit": "nM"}, {"measurement": "selectivity to urethra (rank order)", "setting": "SD rats; IUP versus MBP", "value": "DC037009>Silodosin"}, {"measurement": "onset dose compared with silodosin", "setting": "SD rats", "value": "significantly lower than that of positive drug silodosin"}, {"measurement": "rank order of inhibition of phenylephrine-induced blood pressure elevation", "setting": "SD rats", "value": "Silodosin>DC037009"}, {"measurement": "rank order of inhibition of phenylephrine-induced intraurethral pressure elevation", "setting": "SD rats", "value": "DC037009>Silodosin"}, {"measurement": "inhibition of phenylephrine-induced intraurethral pressure (IUP) elevation", "setting": "SD rats", "value": "dose-dependently inhibit"}, {"measurement": "inhibition of phenylephrine-induced peripheral arterial blood pressure (MBP) elevation", "setting": "SD rats", "value": "dose-dependently inhibit"}, {"measurement": "efficacy compared with positive drug", "setting": "BPH Rat model; gavage", "value": "comparable to the positive drug"}, {"measurement": "onset dose", "setting": "BPH Rat model; gavage", "value": 1, "unit": "mg/kg"}, {"measurement": "frequency of urination, single urine output: relation to dose", "setting": "BPH Rat model; gavage", "value": "dose-dependent relationship"}, {"measurement": "frequency of urination", "setting": "BPH Rat model; [1]", "value": "reduce frequency of urination"}, {"measurement": "single urine output", "setting": "BPH Rat model; [1]", "value": "significantly increase"}]}
{"smiles": "COc1cc2c(cc1OCc1ccccc1)C[C@H]1c3cc4c(cc3CCN1C2)OCO4", "note": "[DC037016]", "values": [{"measurement": "IC50", "setting": "α1A-AR", "value": 34.8, "unit": "nM"}, {"measurement": "α1B/α1A", "setting": "α1A-AR", "value": 122}, {"measurement": "IC50", "setting": "α1B-AR", "value": 4250, "unit": "nM"}]}
{"smiles": "C[C@H](Cc1cc2c(c(C(N)=O)c1)N(CCCO)CC2)NCCOc1ccccc1OCC(F)(F)F", "note": "[Silodosin, reference compound]", "values": [{"measurement": "inhibition of phenylephrine-induced intraurethral pressure (IUP) elevation", "setting": "SD rats", "value": "dose-dependently inhibit"}, {"measurement": "inhibition of phenylephrine-induced peripheral arterial blood pressure (MBP) elevation", "setting": "SD rats", "value": "dose-dependently inhibit"}, {"measurement": "frequency of urination, single urine output: relation to dose", "setting": "BPH Rat model; gavage", "value": "dose-dependent relationship"}]}
